Tests used:
[1] = tested on: cutaneous passive anaphylaxis; assay: cutaneous passive anaphylaxis on the rat (antianaphylactic activity vs. sodium chromoglycate standard); type: in vivo; details: for Compound activity / Standard activity: ratio to chromoglycate (standard), cutaneous passive anaphylaxis, rat
Excerpt: The compounds of formula I and their pharmacologically compatible salts show antianaphylactic activity (which is rather remarkable for some of them) that may be successfully employed to prepare pharmaceutical formulations for human use against the allergic asthma and alimentary allergies. In order to evaluate the antianaphylactic activity, we have performed some comparison tests with sodium chromoglycate that is, at the present time, the most known and the most used antiallergic agent.
(§1) The evaluation of biological data has been carried out by the most accepted test of the cutaneous passive anaphylaxis on the rat. We have followed the method described by J. Mota on Life Science 12,917 (1963) that was appropriately modified. The LD50 determination was carried out with the common method, by administering intraperitoneally the compound to rats. The chromoglycate was used as a standard. In the first column, are listed the LD50 values (mg/Kg), in the second the ratios [formula] in the last column the ratios [formula]

[2] = LD50 determination, intraperitoneal, rats; details: rat, in vivo, ip
Description: as §1

[3] = tested on: cutaneous passive anaphylaxis; details: qualitative statement, no data; cited from earlier work

Question: Which antianaphylactic activity ([1]; qualitative statement) does the source give for `CCC(=O)c1cccc(C(=O)O)c1OCCN(CC)CC` [Example 7, 2(β-diethylamino)ethoxy-3-propionylbenzoic Acid] here?
Answer: most active product of this series

Question: What about the “Compound activity / Standard activity” value [1] of the same compound?
Answer: 1.22

Question: What about the LD50 [2] of the same compound?
Answer: 3000 mg/kg

Question: Which “Compound activity / Standard activity” value [1] does the source give for `CCC(=O)c1cccc(C(=O)Nc2cccc(Cl)c2)c1O` [Example 4, 2-Hydroxy-3-propionyl (m-chlorophenyl) benzamide] here?
Answer: 1.12

Question: What about the LD50 ([2]; intraperitoneally to rats) of the same compound?
Answer: 2700 mg/kg

Question: With `CCOc1ccc(NC(=O)c2cccc(C(=O)CC)c2O)cc1` [Example 2, 2-Hydroxy-3-propionyl (4-ethoxyphenyl)benzamide] as the compound, how does the “Compound activity / Standard activity” value [1] read?
Answer: 1.20

Question: And the LD50 ([2]; intraperitoneally to rats)?
Answer: 3000 mg/kg

Question: Which “activity when administered per os (chromoglycate)” value [3] does the source give for `O=C(O)c1cc(=O)c2c(OCC(O)COc3cccc4oc(C(=O)O)cc(=O)c34)cccc2o1` [chromoglycate, sodium chromoglycate] here?
Answer: inactive

Question: Which “Compound activity / Standard activity” value [1] does the source give for `CCC(=O)c1cccc(C(=O)Nc2ccccc2Cl)c1O` [Example 3, 2-Hydroxy-3-propionyl (o-chlorophenyl) benzamide] here?
Answer: 1.19

Question: What about the LD50 ([2]; intraperitoneally to rats) of the same compound?
Answer: 3000 mg/kg

Reference: patent publication US4093648A, “Therapeutically active benzoic acid derivatives and a process for preparing them” (Recordati S.A. Chemical and Pharmaceutical Company, priority 1975, dated 1978)
